These results are taken from patent US9968553B1, “Enalapril compositions” (Silvergate Pharmaceuticals, Inc., priority 2012, dated 2018).

The nature of the series: Reconstitution studies in 150 mL Ora-Sweet SF syrup (visual inspection). The following applies: 150 mL Ora-Sweet SF sugar-free flavored syrup. The series is classed as physicochemical. The procedure: The scaled-up enalapril and mannitol powder compositions (Enalapril Powder Composition A and the like) were examined in reconstitution studies where 150 mL Ora-Sweet® SF sugar-free flavored syrup was to the powder compositions.
Reconstitution of Neat Enalapril Powder in Bottle: Due to the ‘clouding’ in the reconstitution as well as the uniformity issues in the scale-up studies of Enalapril Powder Composition A, neat enalapril, i.e., drug alone, without any excipients, was examined for scale-up bottle filling and subsequent reconstitution.

Turning to `CCOC(=O)[C@H](CCc1ccccc1)N[C@@H](C)C(=O)N1CCC[C@H]1C(=O)O` [neat enalapril, enalapril], the “Reconstitution, visual observation of dissolution” value is on record as “did not dissolve”.
